Measurements as given in US7169789B2 (Kirin Beer Kabushiki Kaisha, priority 1999, dated 2007).

Experiments:
[1] = target: T1, human KDR (Homo sapiens, UniProt P35968); test: Inhibitory activity against KDR phosphorylation by ELISA; format: cell-based; details: NIH 3T3 cells transfected with human KDR, VEGF 100 ng/ml
T1 construct: expressed in transfected cells; host or cells: NIH 3T3 cells (Sawano A et al., Cell Growth & Differentiation 7, 213-221 (1996))
Protocol: Measurement of Inhibitory Activity Against KDR Phosphorylation by ELISA
NIH 3T3 cells (Sawano A et al., Cell Growth & Differentation, 7, 213–221 (1996), “Flt-1 but not KDR/Flk-1 tyrosine kinase is a receptor for placenta growth factor, which is related to vascular endothelial growth factor”) prepared by transfection of human KDR were cultured in a DMEM medium containing 10% fetal calf serum (purchased from GIBCO BRL) within a 5% carbon dioxide incubator until 50 to 70% confluent. The harvested cells were inoculated into wells, containing the same medium, in a collagen-type one-coat 96-well flat-bottom plate in an amount of 1.5×10^4 per well, followed by cultivation at 37° C. overnight. The medium was then replaced by a DMEM medium containing 0.1% fetal calf serum. A solution of the test compound in dimethyl sulfoxide was added to each well, and the cultivation was continued at 37° C. for additional one hr. A human recombinant vascular endothelial growth factor (hereinafter abbreviated to “VEGF”) was added to a final concentration of 100 ng/ml, and the stimulation of cells was carried out at 37° C. for 2 min. The medium was removed, the cells were washed with phosphate buffered saline (pH 7.4), and 50 μl of a solubilization buffer (20 mM HEPES (pH 7.4), 150 mM NaCl, 0.2% Triton X-100, 10% glycerol, 5 mM sodium orthovanadylate, 5 mM disodium ethylenediaminetetraacetate, and 2 mM Na4P2O7) was then added thereto. The mixture was shaken at 4° C. for 2 hr to prepare a cell extract.
Separately, phosphate buffered saline (50 μl, pH 7.4) containing […] of anti-phospho-tyrosine antibody (PY20; purchased from Transduction Laboratories) was added to a microplate for ELISA (Maxisorp; purchased from NUNC), followed by standing at 4° C. overnight to form a solid phase on the wells. After washing of the plate, 300 μl of a blocking solution was added, followed by standing at room temperature for 2 hr to perform blocking. After washing, the whole quantity of the cell extract was transferred to the wells, and the plate was then allowed to stand at 4° C. overnight. After washing, an anti-KDR antibody (purchased from Santa Cruz) was allowed to react at room temperature for one hr, and, after washing, a peroxidase-labeled anti-rabbit Ig antibody (purchased from Amersham) was allowed to react at room temperature for one hr. After washing, a chromophoric substrate for peroxidase (purchased from Sumitomo Bakelite Co., Ltd.) was added thereto to initiate a reaction. After a suitable level of color development, a reaction termination solution was added to stop the reaction, and the absorbance at 450 nm was measured with a microplate reader. The KDR phosphorylation activity for each well was determined by presuming the absorbance with the addition of VEGF and without the addition of the medicament to be 100% KDR phosphorylation activity and the absorbance without the medicament and VEGF to be 0% KDR phosphorylation activity. The concentration of the test compound was varied on several levels, the inhibition (%) of KDR phosphorylation was determined for each case, and the concentration of the test compound necessary for inhibiting 50% of KDR phosphorylation (IC50) was calculated.

[2] = system: Human glioma cells GL07; test: Antitumor effect on human glioma cells (GL07) transplanted into nude mice; format: in vivo; details: Mus musculus, Glioma cell, 216 h, GL07, oral, 20 mg/kg once a day for 9 days, read-out: TGIR, % (tumor growth inhibition rate)
Protocol: Antitumor Effect on Human Glioma Cells (GL07)
Human glioma cells GL07 (obtained from Central Laboratories for Experimental Animals) were transplanted into nude mice. When the tumor volume became about 100 mm^3, the mice were grouped. In this case, grouping was carried out so that each group consisted of four mice and the average tumor volume was even among the groups. The test compound was orally or intraperitoneally administered at a dose of 20 mg/kg to the test groups every day once a day for 9 days, while the medium was administered to the control group in the manner as in the test groups. The tumor growth inhibition rate (TGIR) was calculated as follows: The tumor growth inhibition rate (TGIR)=(1−Tx/Cx)×100 wherein Cx represents the volume of tumor at day x for the control group when the tumor volume at the day of the start of the administration was presumed to be 1; and Tx represents the volume of tumor for test compound administration groups.

T1 sequence (P35968 20-1356): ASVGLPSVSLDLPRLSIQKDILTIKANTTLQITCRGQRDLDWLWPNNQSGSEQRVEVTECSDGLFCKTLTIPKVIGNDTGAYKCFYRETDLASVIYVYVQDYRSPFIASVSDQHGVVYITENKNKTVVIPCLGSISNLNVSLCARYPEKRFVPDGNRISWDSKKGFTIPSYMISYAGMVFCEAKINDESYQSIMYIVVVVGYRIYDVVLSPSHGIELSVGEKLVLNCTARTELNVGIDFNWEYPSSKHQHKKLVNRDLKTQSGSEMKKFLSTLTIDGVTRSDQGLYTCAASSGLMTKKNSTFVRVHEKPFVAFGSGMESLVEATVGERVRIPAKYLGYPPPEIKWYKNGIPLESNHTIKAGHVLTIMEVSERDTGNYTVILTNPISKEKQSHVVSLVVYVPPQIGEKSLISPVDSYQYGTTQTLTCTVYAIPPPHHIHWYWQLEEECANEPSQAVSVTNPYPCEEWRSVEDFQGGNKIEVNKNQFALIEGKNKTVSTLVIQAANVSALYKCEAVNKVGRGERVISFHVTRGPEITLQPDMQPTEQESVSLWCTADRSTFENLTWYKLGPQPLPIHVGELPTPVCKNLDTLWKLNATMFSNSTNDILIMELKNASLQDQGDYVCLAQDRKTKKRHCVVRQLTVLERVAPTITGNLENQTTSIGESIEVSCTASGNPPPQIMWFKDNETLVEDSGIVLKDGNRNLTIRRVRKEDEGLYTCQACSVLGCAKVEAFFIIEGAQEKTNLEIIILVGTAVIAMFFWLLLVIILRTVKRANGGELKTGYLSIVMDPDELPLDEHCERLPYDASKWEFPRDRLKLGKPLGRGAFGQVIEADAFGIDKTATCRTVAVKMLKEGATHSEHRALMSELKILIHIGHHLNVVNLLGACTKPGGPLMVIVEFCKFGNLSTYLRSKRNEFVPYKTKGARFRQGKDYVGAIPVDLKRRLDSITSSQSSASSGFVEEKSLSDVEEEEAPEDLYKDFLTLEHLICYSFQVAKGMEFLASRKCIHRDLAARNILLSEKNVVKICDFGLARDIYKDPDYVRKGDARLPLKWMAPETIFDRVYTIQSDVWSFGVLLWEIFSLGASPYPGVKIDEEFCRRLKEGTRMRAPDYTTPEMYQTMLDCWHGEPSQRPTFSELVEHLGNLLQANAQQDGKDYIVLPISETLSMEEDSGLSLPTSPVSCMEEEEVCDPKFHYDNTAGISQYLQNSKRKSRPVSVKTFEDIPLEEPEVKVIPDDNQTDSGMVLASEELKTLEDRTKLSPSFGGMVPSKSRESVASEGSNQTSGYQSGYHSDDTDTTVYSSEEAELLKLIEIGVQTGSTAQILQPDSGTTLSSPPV

Row | Compound | IC50 [1] [nM] | inhibition in vivo at 20 mg/kg [2] [%]
1 | COC(=O)COc1cc2ncnc(Oc3ccc(NC(=O)N(C)C)c(Cl)c3)c2cc1OC [Example 181, Methyl 2-{[4-(3-chloro-4-{[(dimethylamino)carbonyl]amino}phenoxy)-6-methoxy-7-quinazolinyl]oxy}acetate] | > 1000 | 21
2 | CCCN(CCC)C(=O)Nc1ccc(Oc2ncnc3cc(OC)c(OC)cc23)cc1Cl [Example 113, N′-{2-Chloro-4-[(6,7-dimethoxy-4-quinazolinyl)oxy]phenyl}-N,N-dipropylurea] | > 1000 | 61
3 | CCNC(=O)Nc1cc(C)c(Oc2ccnc3cc(OCCN4CCOCC4)c(OC)cc23)cc1C [Example 175, N-Ethyl-N′-(4-{[6-methoxy-7-(2-morpholinoethoxy)-4-guinolyl]oxy}-2,5-dimethylphenyl)urea] | 4.7 | 17
4 | COc1cc2c(Oc3ccc(NC(=O)N(C)C)c(Cl)c3)ncnc2cc1OCc1ccncc1 [Example 180, N′-(2-Chloro-4-{[6-methoxy-7-(4-pyridylmethoxy)-4-quinazolinyl]oxy}phenyl)-N,N-dimethylurea] | > 1000 | 45
5 | COc1cc2c(Oc3ccc(NC(=O)Nc4ccc(F)cc4F)c(Cl)c3)ccnc2cc1OCc1ccncc1 [Example 186, N-(2-chloro-4-{[6-methoxy-7-(4-pyridylmethoxy)-4-quinolyl]oxy}phenyl)-N′-(2,4-difluorophenyl)urea] | 6.3 | 47
6 | CCCNC(=O)N(C(C)=O)c1ccc(Oc2ncnc3cc(OC)c(OC)cc23)cc1Cl [Example 110, N-Acetyl-N-{2-chloro-4-[(6,7-dimethoxy-4-quinazolinyl)oxy]phenyl}-N′-propylurea] | > 1000 | 26
7 | CCCN(C)C(=O)Nc1ccc(Oc2ncnc3cc(OC)c(OC)cc23)cc1Cl [Example 111, N′-{2-Chloro-4-[(6,7-dimethoxy-4-quinazolinyl)oxy]phenyl}-N-methyl-N-propyurea] | > 1000 | 78
8 | CCCNC(=O)Nc1ccc(Oc2ncnc3cc(OC)c(OCCCN4CCOCC4)cc23)cc1Cl [Example 139, N-(2-Chloro-4-{[7-methoxy-6-(3-morpholinopropoxy)-4-quinazolinyl]oxy}phenyl)-N′-propylurea] | 15 | 27
9 | CCCCN(C)C(=O)Nc1ccc(Oc2ncnc3cc(OC)c(OC)cc23)cc1Cl [Example 114, N-Butyl-N′-{2-chloro-4-[(6,7-dimethoxy-4-quinazolinyl)oxy]phenyl}-N-methylurea] | > 1000 | 60
10 | COc1cc2c(Oc3ccc(NC(=O)N(C)C)c(Cl)c3)ncnc2cc1OCCN1CCOCC1 [Example 178, N′-(2-Chloro-4-{[6-methoxy-7-(2-morpholinoethoxy)-4-quinazolinyl]oxy}phenyl)-N,N-dimethylurea] | > 1000 | 28
11 | COc1cc2c(Oc3ccc(NC(=O)N(C)C)c(Cl)c3)ncnc2cc1OCCCN(C)CCO [Example 183, N′-{2-Chloro-4-[(7-{3-[(2-hydroxyethyl)-(methyl)amino]propoxy}-6-methoxy-4-quinazolinyl)oxy]-phenyl}-N,N-dimethylurea] | > 1000 | 22
12 | COc1cc2c(Oc3ccc(NC(=O)Nc4ccc(F)cc4F)c(Cl)c3)ccnc2cc1OCCCN1CCOCC1 [Example 168, N-(2-chloro-4-{[6-methoxy-7-(3-morpholinopropoxy)-4-quinolyl]oxy}phenyl)-N′-(2,4-difluorophenyl)-urea] | 4 | 42

More lines, in order of falling IC50 [1], values ahead:

Row | IC50 [1] [nM] | Compound | inhibition in vivo at 20 mg/kg [2] [%]
13 | 3.9 | COc1cc2c(Oc3ccc(NC(=O)Nc4ccc(F)cc4F)c(Cl)c3)ncnc2cc1OCc1ccncc1 [Example 161, N-(2-Chloro-4-{[6-methoxy-7-(4-pyridylmethoxy)-4-quinazolinyl]oxy}phenyl)-N′-(2,4-difluorophenyl)urea] | 39
14 | 3.7 | CCCNC(=O)Nc1cc(C)c(Oc2ccnc3cc(OCCCN4CCN(C)CC4)c(OC)cc23)cc1C [Example 176, N-[4-({6-Methoxy-7-[3-(4-methylpiperazino)-propoxy]-4-guinolyl}oxy)-2,5-dimethylphenyl]-N′-propylurea] | 22
15 | 3 | COc1ccccc1NC(=O)Nc1ccc(Oc2ncnc3cc(OC)c(OC)cc23)c(C)c1 [Example 101, N-{4-[(6,7-Dimethoxy-4-quinazolinyl)oxy]-3-methylphenyl}-N′-(2-methoxyphenyl)urea] | 44
16 | 2.1 | COc1cc2c(Oc3ccc(NC(=O)Nc4ccc(F)cc4F)c(Cl)c3)ccnc2cc1OCCN(C)CCO [Example 167, N-{2-Chloro-4-[(7-{2-[(2-hydroxyethyl)-(methyl)amino]ethoxy}-6-methoxy-4-guinolyl)oxy]phenyl}-N′-(2,4-difluorophenyl)urea] | 28
17 | 1.9 | CCCNC(=O)Nc1ccc(Oc2ccnc3cc(OCCCCCn4ccnn4)c(OC)cc23)cc1Cl [Example 159, N-{2-chloro-4-[(6-methoxy-7-{[5-(1H-1,2,3-triazol-1-yl)pentyl]oxy}-4-quinolyl)oxy]phenyl}-N′-propylurea] | 40
18 | 1.8 | CCCNC(=O)Nc1ccc(Oc2ccnc3cc(OCCN(C)CCO)c(OC)cc23)cc1Cl [Example 150, N-{2-Chloro-4-[(7-{2-[(2-hydroxyethyl)-(methyl)amino]ethoxy}-6-methoxy-4-guinolyl)oxy]phenyl}-N′-propylurea] | 22
19 | 1.6 | CCCNC(=O)Nc1ccc(Oc2ccnc3cc(OCCN4CCOCC4)c(OC)cc23)cc1Cl [Example 144, N-(2-chloro-4-{[6-methoxy-7-(2-morpholinoethoxy)-4-quinolyl]oxy}phenyl)-N′-propylurea] | 56
20 | 1.6 | CCCNC(=O)Nc1ccc(Oc2ccnc3cc(OCCO)c(OC)cc23)cc1Cl [Example 149, N-(2-chloro-4-{[7-(2-hydroxyethoxy)-6-methoxy-4-quinolyl]oxy}phenyl)-N′-propylurea] | 47
21 | 1.4 | COc1cc2c(Oc3ccc(NC(=O)Nc4ccc(F)cc4F)c(Cl)c3)ncnc2cc1OCCCN1CCOCC1 [Example 163, N-(2-chloro-4-{[6-methoxy-7-(3-morpholinopropoxy)-4-quinazolinyl]oxy}phenyl)-N′-(2,4-difluorophenyl)urea] | 52
22 | 1 | CCCNC(=O)Nc1ccc(Oc2ccnc3cc(OCCn4ccnc4)c(OC)cc23)cc1Cl [Example 146, N-[2-chloro-4-(7-{[2-(1H-1-imidazolyl)ethoxy]-6-methoxy-4-quinolyl}oxy)phenyl]-N′-propylurea] | 48
23 | 0.4 | CCCNC(=O)Nc1ccc(Oc2ccnc3cc(OCCCN(C)CCO)c(OC)cc23)cc1Cl [Example 157, N-{2-chloro-4-[(7-{3-[(2-hydroxyethyl)-(methyl)amino]propoxy}-6-methoxy-4-quinolyl)oxy]-phenyl}-N′-propylurea] | 44
